Numbered stars: 1 amine (or outer) side, 2 acyl side, 3 side chain; on linkers, the order of the positions; unused ones are H or OH. Bridge positions count the residues as written; N and C are the ends. Square brackets hold non-standard residues; d marks the D form. Peptide text beside a SMILES is read from it. * marks the point of attachment. hPhe(3-Cl-4-CF3) = N[C@@H](CCc1ccc(C(F)(F)F)c(Cl)c1)C(=O)O; NMePhe(4-CF3) = CN[C@@H](Cc1ccc(C(F)(F)F)cc1)C(=O)O; X25 = COc1ccc(C[C@@H](C(=O)[*:2])N(C)[*:1])cn1; NEtPhe(4-Me) = CCN[C@@H](Cc1ccc(C)cc1)C(=O)O; NMePhe(4-Me) = CN[C@@H](Cc1ccc(C)cc1)C(=O)O; NMedβ3hAla = C[C@H](CC(=O)[*:2])N(C)[*:1]; Phe(3-I) = N[C@@H](Cc1cccc(I)c1)C(=O)O; Ala(cPent) = N[C@@H](CC1CCCC1)C(=O)O; NMeY = CN[C@@H](Cc1ccc(O)cc1)C(=O)O; NMeCha = CN[C@@H](CC1CCCCC1)C(=O)O; Hyp = O=C(O)[C@@H]1C[C@@H](O)CN1; NMeChg = CN[C@H](C(=O)O)C1CCCCC1; NMeF = CN[C@@H](Cc1ccccc1)C(=O)O; NMeI = CC[C@H](C)[C@H](NC)C(=O)O; NMeD = CN[C@@H](CC(=O)O)C(=O)O; NMeL = CN[C@@H](CC(C)C)C(=O)O; NMeV = CN[C@H](C(=O)O)C(C)C; d(β3hA) = C[C@@H](N)CC(=O)O; NMeS = CN[C@@H](CO)C(=O)O; NMeA = CN[C@@H](C)C(=O)O; Piperidide = C1CCN(*)CC1; Pyrrolidide = C1CCN(*)C1; Ac5c = NC1(C(=O)O)CCCC1; Aze = O=C(O)[C@@H]1CCN1; Ac4c = NC1(C(=O)O)CCC1; CH2CMe2OH = CC(C)(O)C*; βAla = NCCC(=O)O; Sar = CNCC(=O)O
The compounds below were run on Human pancreatic cancer cell line AsPC-1 (G12D mutation Kras) (assay: AsPC-1 cell growth inhibition (AsPC-1 CGI)). Conditions: read-out: AsPC-1 cell growth inhibition, 50% growth inhibitory concentration (IC50 value); 96 hours, CellTiter-Glo, values classified in ranges.
Format: cell-based
Experimental: Test compounds were serially dilated with dimethyl sulfoxide, and 200 nL was then dispensed to a U-bottom 96-well plate using Labcyte Echo. […] The cell suspension was dispensed to a. plate containing a test compound at 100 μL per well and incubated at 37° C. in a 5% carbon dioxide gas incubator. 96 hours later, 80 μL of CellTiter-Glo (Promega) was added to each well and fluorescence was measured.
`CC[C@H](C)[C@@H]1NC(=O)[C@H](CC(C)C)N(C)C(=O)C[C@@H](C)NC(=O)[C@H](C2CCCCC2)N(C)C(=O)C2(CCCC2)NC(=O)[C@@H]2CCCN2C(=O)[C@H](CCc2ccc(C(F)(F)F)c(Cl)c2)NC(=O)CN(C)C(=O)[C@H](CC2CCCCC2)N(C)C(=O)CN(C)C(=O)CN(C)C1=O` [Compound 593] (cyclo([Ac5c][NMeChg][d(β3hA)][NMeL]I[Sar][Sar][NMeCha][Sar][hPhe(3-Cl-4-CF3)]P)) showed an IC50 of over 500 nM.
`CC(C)C[C@H]1C(=O)N[C@@H]([C@@H](C)O)C(=O)N(C)CC(=O)N(C)CC(=O)N(C)[C@@H](CC2CCCCC2)C(=O)N(C)CC(=O)N[C@@H](CCc2ccc(C(F)(F)F)c(Cl)c2)C(=O)N2CCC[C@H]2C(=O)NC2(CCCC2)C(=O)N(C)[C@@H](C2CCCCC2)C(=O)N(C)[C@H](C(=O)N2CCCCC2)CC(=O)N1C` [Compound 603] ([NMeL]T[Sar][Sar][NMeCha][Sar][hPhe(3-Cl-4-CF3)]P[Ac5c][NMeChg][NMeD]-Piperidide; lactam N-11) gave an IC50 of over 500 nM.
`CC[C@H](C)[C@@H]1NC(=O)[C@H](C)N(C)C(=O)C[C@@H](C(=O)N2CCCC2)N(C)C(=O)[C@H](CC(C)C)NC(=O)[C@H](Cc2ccccc2)N(C)C(=O)[C@H](C)NC(=O)[C@H](Cc2cccc(I)c2)NC(=O)CN(C)C(=O)[C@H](Cc2ccc(OC)cc2)N(C)C(=O)[C@@H]2CCN2C(=O)[C@H](C)N(C)C1=O` [Compound 604] ([NMeA]I[NMeA][Aze][NMeY](Me)[Sar][Phe(3-I)]A[NMeF]L[NMeD]-Pyrrolidide; lactam N-11) gave an IC50 of over 500 nM.
`CC[C@H](C)[C@@H]1NC(=O)CCNC(=O)[C@H](COCC(C)(C)O)N(C)C(=O)[C@H](C2CCCCC2)N(C)C(=O)C2(CCCC2)NC(=O)[C@@H]2CCCN2C(=O)[C@H](CCc2ccc(C(F)(F)F)c(Cl)c2)NC(=O)CN(C)C(=O)[C@H](CC2CCCCC2)N(C)C(=O)CN(C)C(=O)CN(C)C1=O` [Compound 605] (cyclo([Ac5c][NMeChg][NMeS](CH2CMe2OH)[βAla]I[Sar][Sar][NMeCha][Sar][hPhe(3-Cl-4-CF3)]P)) gave an IC50 of over 500 nM.
With `CC[C@H](C)[C@@H]1NC(=O)[C@H](CC(C)C)N(C)C(=O)C[C@@H](C(=O)N2CCCCC2)N(C)C(=O)[C@H](C2CCCCC2)N(C)C(=O)C2(CCCC2)NC(=O)[C@H](Cc2ccc(OC)nc2)N(C)C(=O)[C@H](CCc2ccc(C(F)(F)F)c(Cl)c2)NC(=O)CN(C)C(=O)[C@H](CC2CCCCC2)N(C)C(=O)[C@@H]2CCN2C(=O)CN(C)C1=O` [Compound 614] ([NMeL]I[Sar][Aze][NMeCha][Sar][hPhe(3-Cl-4-CF3)][X25][Ac5c][NMeChg][NMeD]-Piperidide; lactam N-11) the IC50 was over 500 nM.
In the case of `CC[C@H](C)[C@@H]1NC(=O)[C@H](CC(C)C)N(C)C(=O)C[C@@H](C(=O)N2CCCCC2)N(C)C(=O)[C@H](CC(C)C)NC(=O)[C@H](Cc2ccccc2)N(C)C(=O)[C@H](C)NC(=O)[C@H](Cc2cccc(I)c2)NC(=O)CN(C)C(=O)[C@H](Cc2ccc(C)cc2)N(C)C(=O)CN(C)C(=O)CN(C)C1=O` [Compound 619] ([NMeL]I[Sar][Sar][NMePhe(4-Me)][Sar][Phe(3-I)]A[NMeF]L[NMeD]-Piperidide; lactam N-11), the IC50 is reported as over 500 nM.
`CC[C@H](C)[C@@H]1NC(=O)[C@H](CC(C)C)N(C)C(=O)C[C@@H](C(=O)N2CCCCC2)N(C)C(=O)[C@H](C2CCCCC2)N(C)C(=O)C2(CCCC2)NC(=O)[C@@H]2CCCN2C(=O)[C@H](CCc2ccc(C(F)(F)F)c(Cl)c2)NC(=O)CN(C)C(=O)[C@H](COC)N(C)C(=O)CN(C)C(=O)CN(C)C1=O` [Compound 623] ([NMeL]I[Sar][Sar][NMeS](Me)[Sar][hPhe(3-Cl-4-CF3)]P[Ac5c][NMeChg][NMeD]-Piperidide; lactam N-11) gave an IC50 of over 500 nM.
Work on `CCO[C@@H]1C[C@H]2C(=O)NC3(CCC3)C(=O)N(C)[C@@H]([C@@H](C)CC)C(=O)N(C)[C@H](C)CC(=O)N(C)[C@@H](CC(C)C)C(=O)N[C@@H]([C@@H](C)CC)C(=O)N(C)[C@@H](C)C(=O)N3CC[C@H]3C(=O)N(CC)[C@@H](Cc3ccc(C)cc3)C(=O)N(C)CC(=O)N[C@@H](CCc3ccc(C(F)(F)F)c(Cl)c3)C(=O)N2C1` [Compound 626] (cyclo([Ac4c][NMeI][NMedβ3hAla][NMeL]I[NMeA][Aze][NEtPhe(4-Me)][Sar][hPhe(3-Cl-4-CF3)][Hyp](Et))) yielded an IC50 of at most 20 nM.
For `CC(C)C[C@H]1C(=O)N[C@@H](CC2CCCC2)C(=O)N(C)CC(=O)N(C)CC(=O)N(C)[C@@H](CC2CCCCC2)C(=O)N(C)CC(=O)N[C@@H](CCc2ccc(C(F)(F)F)c(Cl)c2)C(=O)N2CCC[C@H]2C(=O)NC2(CCCC2)C(=O)N(C)[C@@H](C(C)C)C(=O)N(C)[C@H](C(=O)N2CCCCC2)CC(=O)N1C` [Compound 627] ([NMeL][Ala(cPent)][Sar][Sar][NMeCha][Sar][hPhe(3-Cl-4-CF3)]P[Ac5c][NMeV][NMeD]-Piperidide; lactam N-11), the IC50 was over 500 nM.
`CC[C@H](C)[C@@H]1NC(=O)[C@H](CC(C)C)N(C)C(=O)C[C@@H](C(=O)N2CCCCC2)N(C)C(=O)[C@H]([C@@H](C)CC)N(C)C(=O)C2(CCCC2)NC(=O)[C@@H]2CCCN2C(=O)[C@H](CCc2ccc(C(F)(F)F)c(Cl)c2)NC(=O)CN(C)C(=O)[C@H](Cc2ccc(C(F)(F)F)cc2)N(C)C(=O)[C@@H]2CCN2C(=O)[C@H](C)N(C)C1=O` [Compound 630] ([NMeL]I[NMeA][Aze][NMePhe(4-CF3)][Sar][hPhe(3-Cl-4-CF3)]P[Ac5c][NMeI][NMeD]-Piperidide; lactam N-11) gave an IC50 of at most 20 nM.
